Measured values from ChEMBL document CHEMBL1149774, “Synthesis of N-(5,7-diamino-3-phenyl-quinoxalin-2-yl)-3,4,5-substituted anilines and N-[4[(5,7-diamino-3-phenylquinoxalin-2-yl)amino]benzoyl]-l-glutamic acid diethyl ester: evaluation of in vitro anti-cancer and anti-folate activities” (Eur J Med Chem, 2008).

How the values were obtained:
Type in all cases: functional
SN12C = experiment: Growth inhibition of human SN12C cells after 48 hrs by SRB staining method
NCI-H23 = experiment: Growth inhibition of human NCI-H23 cells after 48 hrs by SRB staining method; conditions: NCI-H23, 48 h
OVCAR-4 = experiment: Growth inhibition of human OVCAR4 cells after 48 hrs by SRB staining method; conditions: OVCAR-4, 48 h
M14 = experiment: Growth inhibition of human M14 cells after 48 hrs by SRB staining method; conditions: M14, 48 h
NCI-H522 = experiment: Growth inhibition of human NCI-H522 cells after 48 hrs by SRB staining method; conditions: NCI-H522, 48 h
HCT-15 = experiment: Growth inhibition of human HCT15 cells after 48 hrs by SRB staining method; conditions: HCT-15, 48 h
HL-60 = experiment: Growth inhibition of human HL60 cells after 48 hrs by SRB staining method; conditions: HL-60, 48 h
MDA-MB-435 = experiment: Growth inhibition of human MDA-MB-435 cells after 48 hrs by SRB staining method; conditions: MDA-MB-435, 48 h
NCI/ADR-RES = experiment: Growth inhibition of human NCI/ADR-RES cells after 48 hrs by SRB staining method
HOP-62 = experiment: Growth inhibition of human HOP62 cells after 48 hrs by SRB staining method; conditions: HOP-62, 48 h
UACC-257 = experiment: Growth inhibition of human UACC257 cells after 48 hrs by SRB staining method; conditions: UACC-257, 48 h
KM12 = experiment: Growth inhibition of human KM12 cells after 48 hrs by SRB staining method; conditions: KM12, 48 h
SK-OV-3 = experiment: Growth inhibition of human SKOV3 cells after 48 hrs by SRB staining method; conditions: SK-OV-3, 48 h
OVCAR-3 = experiment: Growth inhibition of human OVCAR-3 cells after 48 hrs by SRB staining method; conditions: OVCAR-3, 48 h
SR = experiment: Growth inhibition of human SR cells after 48 hrs by SRB staining method
NCI-H460 = experiment: Growth inhibition of human NCI-H460 cells after 48 hrs by SRB staining method; conditions: NCI-H460, 48 h
LOX IMVI = experiment: Growth inhibition of human LOX IMVI cells after 48 hrs by SRB staining method
OVCAR-5 = experiment: Growth inhibition of human OVCAR5 cells after 48 hrs by SRB staining method; conditions: OVCAR-5, 48 h
UACC-62 = experiment: Growth inhibition of human UACC62 cells after 48 hrs by SRB staining method; conditions: UACC-62, 48 h
786-0 = experiment: Growth inhibition of human 786-0 cells after 48 hrs by SRB staining method; conditions: 786-0, 48 h
SF-295 = experiment: Growth inhibition of human SF295 cells after 48 hrs by SRB staining method; conditions: SF-295, 48 h
OVCAR-8 = experiment: Growth inhibition of human OVCAR8 cells after 48 hrs by SRB staining method; conditions: OVCAR-8, 48 h
HCT-116 = experiment: Growth inhibition of human HCT116 cells after 48 hrs by SRB staining method; conditions: HCT-116, 48 h
NCI-H226 = experiment: Growth inhibition of human NCI-H226 cells after 48 hrs by SRB staining method; conditions: NCI-H226, 48 h
NCI-H322M = experiment: Growth inhibition of human NCI-H322M cells after 48 hrs by SRB staining method
U-251 = experiment: Growth inhibition of human U251 cells after 48 hrs by SRB staining method; conditions: U-251, 48 h
DU-145 = experiment: Growth inhibition of human DU145 cells after 48 hrs by SRB staining method; conditions: DU-145, 48 h
EKVX = experiment: Growth inhibition of human EKVX cells after 48 hrs by SRB staining method
SK-MEL-5 = experiment: Growth inhibition of human SK-MEL-5 cells after 48 hrs by SRB staining method; conditions: SK-MEL-5, 48 h
MCF7 = experiment: Growth inhibition of human MCF7 cells after 48 hrs by SRB staining method; conditions: MCF7, 48 h
SF-268 = experiment: Growth inhibition of human SF268 cells after 48 hrs by SRB staining method; conditions: SF-268, 48 h
RXF 393 = experiment: Growth inhibition of human RXF393 cells after 48 hrs by SRB staining method; conditions: RXF 393, 48 h
TK-10 = experiment: Growth inhibition of human TK10 cells after 48 hrs by SRB staining method; conditions: TK-10, 48 h
[1] = read-out: pLC50 (the source's name) (converted)

Compound: Nc1cc(N)c2nc(-c3ccccc3)c(Nc3ccc(F)cc3)nc2c1
- GI50 (SN12C): 15.8 µM
- CC50 (SN12C; [1]): 74.1 µM
- TGI (SN12C; read-out: pTGI (converted)): 33.9 µM
- GI50 (NCI-H23): 22.4 µM
- TGI (NCI-H23; read-out: pTGI (converted)): 49 µM
- GI50 (OVCAR-4): 13.5 µM
- TGI (OVCAR-4; read-out: pTGI (converted)): 49 µM
- GI50 (M14): 16.2 µM
- TGI (M14; read-out: pTGI (converted)): 43.7 µM
- GI50 (NCI-H522): > 100 µM
- TGI (NCI-H522; read-out: pTGI (converted)): > 100 µM
- GI50 (HCT-15): 12.6 µM
- TGI (HCT-15; read-out: pTGI (converted)): 38 µM
- GI50 (HL-60): 11.2 µM
- CC50 (HL-60; [1]): > 100 µM
- TGI (HL-60; read-out: pTGI (converted)): > 100 µM
- GI50 (MDA-MB-435): 7.41 µM
- CC50 (MDA-MB-435; [1]): 50.1 µM
- TGI (MDA-MB-435; read-out: pTGI (converted)): 20.9 µM
- GI50 (NCI/ADR-RES): 24 µM
- CC50 (NCI/ADR-RES; [1]): > 100 µM
- TGI (NCI/ADR-RES; read-out: pTGI (converted)): 57.5 µM
- GI50 (HOP-62): 38 µM
- TGI (HOP-62; read-out: pTGI (converted)): > 100 µM
- GI50 (UACC-257): 15.1 µM
- TGI (UACC-257; read-out: pTGI (converted)): 28.8 µM
- GI50 (KM12): 12 µM
- TGI (KM12; read-out: pTGI (converted)): 29.5 µM
- GI50 (SK-OV-3): 40.7 µM
- CC50 (SK-OV-3; [1]): > 100 µM
- TGI (SK-OV-3; read-out: pTGI (converted)): > 100 µM
- GI50 (OVCAR-3): 4.68 µM
- TGI (OVCAR-3; read-out: pTGI (converted)): 17.8 µM
- GI50 (SR): 5.37 µM
- GI50 (NCI-H460): 26.3 µM
- TGI (NCI-H460; read-out: pTGI (converted)): > 100 µM
- GI50 (LOX IMVI): 4.79 µM
- TGI (LOX IMVI; read-out: pTGI (converted)): 18.2 µM
- GI50 (OVCAR-5): 38 µM
- TGI (OVCAR-5; read-out: pTGI (converted)): > 100 µM
- GI50 (UACC-62): 16.2 µM
- TGI (UACC-62; read-out: pTGI (converted)): 31.6 µM
- GI50 (786-0): 17.4 µM
- CC50 (786-0; [1]): > 100 µM
- TGI (786-0; read-out: pTGI (converted)): 53.7 µM
- GI50 (SF-295): 14.5 µM
- TGI (SF-295; read-out: pTGI (converted)): 32.4 µM
- GI50 (OVCAR-8): 12.3 µM
- CC50 (OVCAR-8; [1]): 74.1 µM
- TGI (OVCAR-8; read-out: pTGI (converted)): 30.2 µM
- GI50 (HCT-116): 20 µM
- TGI (HCT-116; read-out: pTGI (converted)): > 100 µM
- GI50 (NCI-H226): 17.8 µM
- TGI (NCI-H226; read-out: pTGI (converted)): 47.9 µM
- GI50 (NCI-H322M): 17 µM
- TGI (NCI-H322M; read-out: pTGI (converted)): 35.5 µM
- GI50 (U-251): 5.62 µM
- TGI (U-251; read-out: pTGI (converted)): 20 µM
- GI50 (DU-145): 12 µM
- CC50 (DU-145; [1]): 66.1 µM
- TGI (DU-145; read-out: pTGI (converted)): 28.2 µM
- GI50 (EKVX): 12 µM
- CC50 (EKVX; [1]): 75.9 µM
- TGI (EKVX; read-out: pTGI (converted)): 30.2 µM
- GI50 (SK-MEL-5): 14.5 µM
- TGI (SK-MEL-5; read-out: pTGI (converted)): 33.1 µM
- GI50 (MCF7): 12.6 µM
- CC50 (MCF7; [1]): > 100 µM
- TGI (MCF7; read-out: pTGI (converted)): > 100 µM
- GI50 (SF-268): 13.2 µM
- CC50 (SF-268; [1]): > 100 µM
- TGI (SF-268; read-out: pTGI (converted)): 40.7 µM
- GI50 (RXF 393): 8.71 µM
- CC50 (RXF 393; [1]): 85.1 µM
- TGI (RXF 393; read-out: pTGI (converted)): 28.8 µM
- GI50 (TK-10): 17.4 µM
- CC50 (TK-10; [1]): 74.1 µM
- TGI (TK-10; read-out: pTGI (converted)): 35.5 µM
